For seven molecules, IC50 and viability, T/C results are on record in PubChem BioAssay AID1918930 (Molecular Pharmacology Branch, DTP, NCI, 2023).

This test concerns 233499-124-R-J3-PDC complex spheroid viability, % test/control. The test can be described thus: Anticancer human tumor 233499-124-R-J3-PDC patient-derived colon adenocarcinoma cell line growth inhibition. The note with it: for viability, T/C: stronger effect = lower value. The procedure, abridged: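 Complex spheroids of tumor cells with HUVEC and human MSCs, exposed to iadademstat combined with other agents. Each agent tested in half-log steps from near clinical Cmax (else 10 microM top), DMSO ≤0.25%.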

[1] abbreviates: curve of first compound, second compound 0.1 µM.
The mark [2] stands for this setting: curve of first compound, second compound 0.316 µM.
Where [3] appears, read: curve of first compound, second compound 1 µM.
[4] abbreviates: curve of first compound, second compound 3.16 µM.
Setting [5] is: curve of first compound, second compound 10 µM.
Setting [6] is: second compound 0.1 µM, first compound 0.000316 µM.
[7] abbreviates: second compound 0.1 µM, first compound 0.001 µM.
[8] abbreviates: second compound 0.1 µM, first compound 0.00316 µM.
Setting [9] is: second compound 0.1 µM, first compound 0.01 µM.
The mark [10] stands for this setting: second compound 0.1 µM, first compound 0.0316 µM.
The mark [11] stands for this setting: second compound 0.1 µM, first compound 0.1 µM.
Setting [12] is: second compound 0.316 µM, first compound 0.000316 µM.
Where [13] appears, read: second compound 0.316 µM, first compound 0.001 µM.
Where [14] appears, read: second compound 0.316 µM, first compound 0.00316 µM.
The mark [15] stands for this setting: second compound 0.316 µM, first compound 0.01 µM.
[16] abbreviates: second compound 0.316 µM, first compound 0.0316 µM.
Setting [17] is: second compound 0.316 µM, first compound 0.1 µM.
Setting [18] is: second compound 1 µM, first compound 0.000316 µM.
[19] abbreviates: second compound 1 µM, first compound 0.001 µM.
The mark [20] stands for this setting: second compound 1 µM, first compound 0.00316 µM.
The mark [21] stands for this setting: second compound 1 µM, first compound 0.01 µM.
[22] abbreviates: second compound 1 µM, first compound 0.0316 µM.
Where [23] appears, read: second compound 1 µM, first compound 0.1 µM.
[24] abbreviates: second compound 3.16 µM, first compound 0.000316 µM.
Setting [25] is: second compound 3.16 µM, first compound 0.001 µM.
[26] abbreviates: second compound 3.16 µM, first compound 0.00316 µM.
Where [27] appears, read: second compound 3.16 µM, first compound 0.01 µM.
[28] abbreviates: second compound 3.16 µM, first compound 0.0316 µM.
Setting [29] is: second compound 3.16 µM, first compound 0.1 µM.
The mark [30] stands for this setting: second compound 10 µM, first compound 0.000316 µM.
The mark [31] stands for this setting: second compound 10 µM, first compound 0.001 µM.
Setting [32] is: second compound 10 µM, first compound 0.00316 µM.
Setting [33] is: second compound 10 µM, first compound 0.01 µM.
Where [34] appears, read: second compound 10 µM, first compound 0.0316 µM.
Where [35] appears, read: second compound 10 µM, first compound 0.1 µM.

Where “and” joins values, the source holds several entries; their conditions need not be identical. Identical values can stand only once.
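Note: spheroids exposed to agents for one week before readout.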

With `Nc1ncn(C2CC(O)C(CO)S2)c(=O)n1` (configuration not stated) + NC1CCC(NC2CC2c2ccccc2)CC1, the 50% inhibitory concentration (IC50) under setting [1] was 123 nM; the IC50 under setting [2] came out at 76.1 nM; the IC50 under setting [3] turned out to be 56.9 nM; the IC50 under setting [4] came to 73.9 nM; the half-maximal inhibitory concentration (IC50) under setting [5] was determined as 63.2 nM. Also, the viability, T/C is, setting by setting: (second compound 0.1 µM, first compound 0.000949 µM) 110%; (second compound 0.1 µM, first compound 0.003 µM) 85.6%; (second compound 0.1 µM, first compound 0.00949 µM) 113%; (second compound 0.1 µM, first compound 0.03 µM) 88.1%; (second compound 0.1 µM, first compound 0.0949 µM) 61.4%; (second compound 0.1 µM, first compound 0.3 µM) 13.1%. Moreover, the viability, T/C (second compound 0.316 µM, first compound 0.000949 µM) is 113%; the viability, T/C (second compound 0.316 µM, first compound 0.003 µM) was 107%; the viability, T/C (second compound 0.316 µM, first compound 0.00949 µM) is 117%; the viability, T/C (second compound 0.316 µM, first compound 0.03 µM) was 93.9%; the viability, T/C (second compound 0.316 µM, first compound 0.0949 µM) is 39.7%; the viability, T/C (second compound 0.316 µM, first compound 0.3 µM) is 11.6%. The viability, T/C runs as follows: (second compound 1 µM, first compound 0.000949 µM) 94.3%; (second compound 1 µM, first compound 0.003 µM) 88.6%; (second compound 1 µM, first compound 0.00949 µM) 91.2%; (second compound 1 µM, first compound 0.03 µM) 76.8%; (second compound 1 µM, first compound 0.0949 µM) 28.6%; (second compound 1 µM, first compound 0.3 µM) 27.4%. Also, the viability, T/C is 97.4% (second compound 3.16 µM, first compound 0.000949 µM); 99.9% (second compound 3.16 µM, first compound 0.003 µM); 92% (second compound 3.16 µM, first compound 0.00949 µM); 89% (second compound 3.16 µM, first compound 0.03 µM); 39.2% (second compound 3.16 µM, first compound 0.0949 µM); 24.9% (second compound 3.16 µM, first compound 0.3 µM). Moreover, the viability, T/C was 86.6% (second compound 10 µM, first compound 0.000949 µM); 82.4% (second compound 10 µM, first compound 0.003 µM); 86.8% (second compound 10 µM, first compound 0.00949 µM); 82.8% (second compound 10 µM, first compound 0.03 µM); 32.1% (second compound 10 µM, first compound 0.0949 µM); 23.6% (second compound 10 µM, first compound 0.3 µM).
With `Nc1ncn(C2CC(O)C(CO)S2)c(=O)n1` (configuration not stated), the viability, T/C was 92.5% and 83.6% (compound 0.000949 µM); 96% and 87.5% (compound 0.003 µM); 119% and 95.5% (compound 0.00949 µM); 100% and 94% (compound 0.03 µM); 59.1% and 62.5% (compound 0.0949 µM); 28.4% and 35% (compound 0.3 µM). Moreover, the concentration for half-maximal inhibition (IC50) (curve of compound) was 133 nM and 160 nM.
For `CC(C)CC(NC(=O)C(Cc1ccccc1)NC(=O)c1cnccn1)B(O)O` (configuration not stated) + NC1CCC(NC2CC2c2ccccc2)CC1, the concentration for half-maximal inhibition (IC50) is, setting by setting: under setting [1], 2.62 nM; under setting [2], 2.93 nM; under setting [3], 2.18 nM; under setting [4], 1.95 nM; under setting [5], 2.83 nM. Also, the viability, T/C runs as follows: under setting [6], 105%; under setting [7], 114%; under setting [8], 38.4%; under setting [9], 0.08%; under setting [10], 1.9%; under setting [11], 2.95%. Besides, the viability, T/C runs as follows: under setting [12], 110%; under setting [13], 107%; under setting [14], 46%; under setting [15], 0.06%; under setting [16], 0.03%; under setting [17], 1.83%. The viability, T/C was 109% under setting [18]; 100% under setting [19]; 25.9% under setting [20]; 0.26% under setting [21]; 3.69% under setting [22]; 3.26% under setting [23]. Besides, the viability, T/C is, setting by setting: under setting [24], 90.9%; under setting [25], 94.5%; under setting [26], 19.2%; under setting [27], 0.04%; under setting [28], 2.68%; under setting [29], 0.1%. Further, the viability, T/C is 87.7% under setting [30]; 80.8% under setting [31]; 46.9% under setting [32]; 0.13% under setting [33]; 0.6% under setting [34]; 0.18% under setting [35].
In the case of `CC(C)CC(NC(=O)CNC(=O)c1cc(Cl)ccc1Cl)B1OC(=O)CC(CC(=O)O)(C(=O)O)O1` (configuration not stated) + NC1CC1c1ccc(-c2cccc(O)c2)cc1, the IC50 runs as follows: under setting [1], 4.93 nM; under setting [2], 5.3 nM; under setting [3], 4.23 nM; under setting [4], 4.65 nM; under setting [5], 3.64 nM. For the same molecule, the viability, T/C was 114% under setting [6]; 105% under setting [7]; 80.2% under setting [8]; 1.61% under setting [9]; 0.06% under setting [10]; 0.15% under setting [11]. Besides, the viability, T/C reads like this: under setting [12], 113%; under setting [13], 109%; under setting [14], 88.4%; under setting [15], 2.74%; under setting [16], 0.07%; under setting [17], 0.16%. In addition, the viability, T/C is 104% under setting [18]; 95.1% under setting [19]; 66.3% under setting [20]; 1.28% under setting [21]; 0.13% under setting [22]; 0.13% under setting [23]. Also, the viability, T/C was 89.6% under setting [24]; 88.1% under setting [25]; 73.8% under setting [26]; 2.88% under setting [27]; 0.06% under setting [28]; 0.12% under setting [29]. Also, the viability, T/C by setting is: under setting [30], 70.4%; under setting [31], 88.1%; under setting [32], 56.9%; under setting [33], 0.89%; under setting [34], 0.15%; under setting [35], 0.18%.
Turning to `CC1COCCN1c1cc(-c2ccnn2C)c2ccnc(-c3ccn[nH]3)c2n1` (configuration not stated), the viability, T/C was 91.4% and 59.2% (compound 0.00316 µM); 93.3% and 48.8% (compound 0.01 µM); 61.6% and 40.6% (compound 0.0316 µM); 34.6% and 38.1% (compound 0.1 µM); 16.5% and 47.6% (compound 0.316 µM); 31.2% and 97.3% (compound 1 µM).
`COc1ccc([C@@H](O)c2cc(-c3ncnc4cc(N5CCOCC5)ccc34)c(F)cc2Cl)nn1`: the viability, T/C was 81.5% and 87.1% (compound 0.0316 µM); 76.2% and 85.3% (compound 0.1 µM); 77% and 72.1% (compound 0.316 µM); 82.3% and 74.6% (compound 1 µM); 61.9% and 68.9% (compound 3.16 µM); 12.8% and 35.8% (compound 10 µM). For the setting “curve of compound”, the IC50 was 4170 nM and 5860 nM.
`CC1COCCN1c1cc(C2(S(C)(=N)=O)CC2)nc(-c2ccnc3[nH]ccc23)n1` (configuration not stated): the viability, T/C reads like this: (compound 0.0316 µM) 86% and 97.4%; (compound 0.1 µM) 92.5% and 98.9%; (compound 0.316 µM) 75.2% and 90.7%; (compound 1 µM) 65.8% and 86.7%; (compound 3.16 µM) 49.3% and 53.9%; (compound 10 µM) 63.4% and 54.3%. In addition, the IC50 (curve of compound) is greater than 10000 nM.

In general, IC50 refers to the concentration needed to halve the response being measured. The term viability, T/C denotes the result in the treated group divided by that in the control group, in per cent.
